Test results from publication PMC5108240 (ACS infectious diseases, 2016).
In brackets after ≈: the same amount, converted by molar mass.

What was measured:
[1] = test system: K. pneumoniae (ATCC 10031); assay type: cell-based, Klebsiella pneumoniae
[2] = test system: K. pneumoniae (ATCC 10031); assay: microbe, parasite or virus in culture; assay type: cell-based; conditions: Klebsiella pneumoniae, ATCC10031, read-out: MIC in the presence of thymidine
K. pneumoniae DHFR = K. pneumoniae DHFR (Klebsiella pneumoniae, UniProt A6T4I4); assay: biochemical
E. coli (ATCC 25922) = assay type: cell-based

For `COc1cc(Cc2cnc(N)nc2N)cc(OC)c1OC` [TMP, trimethoprim], the “MIC Kp” value [1] was 0.0781 µg/mL (≈ 0.269 µM), the MIC [2] was over 20 µg/mL and the IC50 (K. pneumoniae DHFR) was 106 ± 6 nM. The “Time-kill: bacteriostatic or bactericidal” value (E. coli (ATCC 25922)) was “bacteriostatic”.
